Assay [1] deals with RT112/84 cell line (FGFR3-fusion). In words: Cancer cell line cell viability assay (Cell Titer-Glo), 72 hr. The conditions noted are these: Homo sapiens, RT112/84, RT112/84 cell line (FGFR3-fusion). In kind it is cell-based. An excerpt: (§1) Experimental Purpose: To detect the change of intracellular ATP by Cell Titer-Glo® and to evaluate the inhibitory effect of the compounds on cancer cell lines by determining the in vitro IC50 value of the compounds.
(§2) Cell Titer-Glo® 2.0 Luminescent cell viability assay reagent was purchased from Promega (Madison, WI). KG-1, KATO-III, and MDA-MB-453 cell lines were purchased from American Type Culture Collection (Manassas, VA). RT112/84 cell line was purchased from Millipore-Sigma (St. Louis, MO). HuH7 cells were purchased from Seikisui Xenotech (Kansas City, KS). RT112/84 and MDA-MB-453 cells were cultured in RPMI1640 media supplemented with 10% fetal bovine serum. KG-1 and KATO-III cell lines were cultured in IMDM media supplemented with 20% FBS. HuH7 cells were cultured in IMDM media supplemented with 10% FBS. Cultures were maintained at 37° C. in a humidified atmosphere of 5% CO2 and 95% air.
(§3) Cell Viability Assay Procedure: Cells were plated in 96-well clear bottom/white plates (Corning #3903) at a range of densities depending on the optimal assay window (5,000-20,000 cells/well in […] of media), incubated overnight. The next day, test compound DMSO stock solutions were made at 10 mM and […] final concentration. Compounds were then added to cells in a 9-dose, 4-fold dilution series starting at 3 μM with an HP 300e Digital Dispenser (each dose was applied in triplicate). DMSO was backfilled to each well up to 301 nL total volume of test compound+DMSO, and a total of 301 nL DMSO was added to a control/no test compound well in triplicate. The cells in cell culture plates were incubated with the compounds at 37° C. and 5% CO2 for 72 hours-120 hours depending on the cell line. Then 50 μl of Cell Titer Glo 2.0 reagent was added to each well of the cell culture plates. The contents were covered from light and mixed on an orbital shaker at room temperature for minimum of 10 min. Luminescence was recorded by a Clariostar Plus Microplate Reader (BMG Labtech, Cary, NC). Cells were assessed as a percentage of DMSO only treated control cells. Curves were plotted and IC50 values were calculated using the GraphPad Prism 9 program based on a sigmoidal dose-response equation (log (inhibitor) vs. response—Variable slope, 4-parameter).

Assay [2] deals with KG-1 cell line (FGFR 1-fusion). The assay is described as above. In kind it is cell-based. The following applies: Homo sapiens, KG-1, KG-1 cell line (FGFR1-fusion).
Source text: as §1, §2, §3

Assay [3] relates to KATO-III cell line (FGFR2 amplification). Described as above. In kind it is cell-based. The following applies: Homo sapiens, KATO III.
Source text: as §1, §2, §3

The next assay has as its target T1, FGFR3 (V555M) (Homo sapiens, UniProt P22607, V555M).
T1 construct: made in house; host or cells: E. coli (BL21-derived), T7 phage
In words: Kinase binding assay (kinase-tagged T7 phage, affinity beads, qPCR), Kd. The following applies: V555M mutant; read-out: FGFR3 (V555M) (Kd nM). The gist of the method: (§4)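 Competition binding of compounds against kinase-tagged T7 phage captured on immobilised biotinylated ligand beads; bead-bound kinase quantified by qPCR of eluates. 11-point 3-fold dilution, 0.9% DMSO final; Kd from Hill fit with slope fixed at −1.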
For orientation: Quantitative PCR measures a nucleic acid by following its amplification.

In the next assay the target is T2, FGFR3 (Homo sapiens, UniProt P22607).
T2 construct: made in house; host or cells: E. coli (BL21-derived), T7 phage
T2 sequence (P22607 23-806): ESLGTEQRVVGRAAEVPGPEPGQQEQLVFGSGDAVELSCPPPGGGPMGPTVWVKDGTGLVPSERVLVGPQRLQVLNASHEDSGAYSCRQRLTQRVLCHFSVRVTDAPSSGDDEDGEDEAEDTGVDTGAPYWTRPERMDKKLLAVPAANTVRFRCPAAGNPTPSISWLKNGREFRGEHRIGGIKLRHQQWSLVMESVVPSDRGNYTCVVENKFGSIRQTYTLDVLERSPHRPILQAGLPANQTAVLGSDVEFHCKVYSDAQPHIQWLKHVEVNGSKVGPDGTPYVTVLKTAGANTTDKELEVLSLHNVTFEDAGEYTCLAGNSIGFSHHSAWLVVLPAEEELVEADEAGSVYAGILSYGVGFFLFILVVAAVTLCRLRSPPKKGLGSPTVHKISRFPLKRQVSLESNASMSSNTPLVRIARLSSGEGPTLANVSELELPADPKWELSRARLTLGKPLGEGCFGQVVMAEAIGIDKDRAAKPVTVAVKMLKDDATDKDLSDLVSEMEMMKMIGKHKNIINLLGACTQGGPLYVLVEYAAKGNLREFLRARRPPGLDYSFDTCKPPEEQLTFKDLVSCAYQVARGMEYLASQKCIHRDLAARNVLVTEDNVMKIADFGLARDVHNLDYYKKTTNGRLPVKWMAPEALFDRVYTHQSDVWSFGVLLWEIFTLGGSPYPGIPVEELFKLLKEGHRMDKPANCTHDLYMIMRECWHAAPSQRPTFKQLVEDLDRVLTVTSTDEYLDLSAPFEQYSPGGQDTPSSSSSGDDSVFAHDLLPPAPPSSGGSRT
The description is as above. The conditions noted are these: read-out: FGFR3 (Kd nM). The gist of the method:
as §4

The target of a further assay is T3, FGFR2 (Homo sapiens, UniProt P21802).
T3 construct: made in house; host or cells: E. coli (BL21-derived), T7 phage
T3 sequence (P21802 22-821): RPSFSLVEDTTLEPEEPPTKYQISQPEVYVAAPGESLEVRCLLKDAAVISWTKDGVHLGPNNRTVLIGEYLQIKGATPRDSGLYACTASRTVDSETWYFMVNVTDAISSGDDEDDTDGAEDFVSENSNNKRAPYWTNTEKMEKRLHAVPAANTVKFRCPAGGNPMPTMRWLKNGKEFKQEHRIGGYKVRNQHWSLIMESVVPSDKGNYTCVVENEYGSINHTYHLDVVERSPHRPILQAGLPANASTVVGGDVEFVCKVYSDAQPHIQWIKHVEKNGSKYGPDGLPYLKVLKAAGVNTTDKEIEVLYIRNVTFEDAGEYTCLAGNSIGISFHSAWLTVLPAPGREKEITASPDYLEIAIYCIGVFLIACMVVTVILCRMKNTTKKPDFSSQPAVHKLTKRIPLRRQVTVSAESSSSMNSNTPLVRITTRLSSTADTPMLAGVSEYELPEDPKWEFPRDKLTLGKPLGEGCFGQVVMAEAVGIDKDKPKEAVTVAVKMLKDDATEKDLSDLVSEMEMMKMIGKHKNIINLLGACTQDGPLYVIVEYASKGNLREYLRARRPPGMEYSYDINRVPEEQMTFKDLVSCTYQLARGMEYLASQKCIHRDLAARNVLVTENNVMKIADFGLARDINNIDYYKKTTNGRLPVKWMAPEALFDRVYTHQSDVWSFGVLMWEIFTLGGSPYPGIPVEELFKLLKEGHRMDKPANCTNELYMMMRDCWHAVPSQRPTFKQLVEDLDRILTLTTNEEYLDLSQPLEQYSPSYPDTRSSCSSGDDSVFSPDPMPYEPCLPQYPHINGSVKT
The description is as above. The conditions noted are these: read-out: FGFR2 (Kd nM). The gist of the method: as §4

The target of the next assay is T4, FGFR1 (Homo sapiens, UniProt P11362).
T4 construct: made in house; host or cells: E. coli (BL21-derived), T7 phage
T4 sequence (P11362 22-822): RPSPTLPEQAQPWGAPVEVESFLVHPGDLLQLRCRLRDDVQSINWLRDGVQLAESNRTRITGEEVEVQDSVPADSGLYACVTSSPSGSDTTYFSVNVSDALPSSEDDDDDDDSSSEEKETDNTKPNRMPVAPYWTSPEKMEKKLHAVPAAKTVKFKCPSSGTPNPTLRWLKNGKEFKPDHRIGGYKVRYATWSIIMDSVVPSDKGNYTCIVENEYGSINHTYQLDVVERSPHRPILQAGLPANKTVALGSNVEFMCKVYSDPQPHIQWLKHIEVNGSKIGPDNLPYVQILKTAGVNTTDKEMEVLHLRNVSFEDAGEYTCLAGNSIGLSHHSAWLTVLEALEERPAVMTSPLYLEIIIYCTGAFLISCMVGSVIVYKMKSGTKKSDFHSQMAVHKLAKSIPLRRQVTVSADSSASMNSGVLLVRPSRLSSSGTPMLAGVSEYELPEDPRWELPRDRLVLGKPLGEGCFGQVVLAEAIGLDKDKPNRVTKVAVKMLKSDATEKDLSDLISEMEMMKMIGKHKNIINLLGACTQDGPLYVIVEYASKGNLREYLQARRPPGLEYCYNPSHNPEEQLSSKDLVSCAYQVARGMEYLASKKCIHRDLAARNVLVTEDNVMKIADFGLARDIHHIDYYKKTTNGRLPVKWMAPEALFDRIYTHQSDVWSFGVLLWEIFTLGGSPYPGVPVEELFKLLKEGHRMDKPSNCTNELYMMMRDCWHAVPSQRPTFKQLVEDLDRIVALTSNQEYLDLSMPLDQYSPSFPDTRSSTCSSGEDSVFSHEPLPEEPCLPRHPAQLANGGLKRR
The description is as above. The conditions noted are these: read-out: FGFR1 (Kd nM). The gist of the method: as §4

In a further assay the target is T5, FGFR4 (Homo sapiens, UniProt P22455).
T5 construct: made in house; host or cells: E. coli (BL21-derived), T7 phage
T5 sequence (P22455 22-802): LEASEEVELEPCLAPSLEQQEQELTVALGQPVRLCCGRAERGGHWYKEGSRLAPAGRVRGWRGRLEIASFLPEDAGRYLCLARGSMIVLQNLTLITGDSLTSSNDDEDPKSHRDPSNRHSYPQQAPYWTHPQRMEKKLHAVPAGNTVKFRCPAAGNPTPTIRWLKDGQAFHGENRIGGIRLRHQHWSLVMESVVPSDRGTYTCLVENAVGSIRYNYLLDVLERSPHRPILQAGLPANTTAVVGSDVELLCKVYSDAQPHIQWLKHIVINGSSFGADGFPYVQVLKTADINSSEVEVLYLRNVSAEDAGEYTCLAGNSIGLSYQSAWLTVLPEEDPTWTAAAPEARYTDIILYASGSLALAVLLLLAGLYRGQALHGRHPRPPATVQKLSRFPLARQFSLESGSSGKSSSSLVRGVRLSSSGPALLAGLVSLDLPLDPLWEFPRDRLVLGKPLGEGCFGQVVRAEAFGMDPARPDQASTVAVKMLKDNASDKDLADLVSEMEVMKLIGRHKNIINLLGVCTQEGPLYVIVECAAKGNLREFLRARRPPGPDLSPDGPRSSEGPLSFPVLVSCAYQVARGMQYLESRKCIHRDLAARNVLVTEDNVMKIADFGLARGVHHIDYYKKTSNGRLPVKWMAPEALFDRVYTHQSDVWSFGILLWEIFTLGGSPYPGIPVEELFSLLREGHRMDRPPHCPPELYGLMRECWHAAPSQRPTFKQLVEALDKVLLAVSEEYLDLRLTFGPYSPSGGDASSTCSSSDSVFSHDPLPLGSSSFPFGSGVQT
The description is as above. The conditions noted are these: read-out: FGFR4 (Kd nM). In outline:
as §4

[4] abbreviates: kinase binding assay, 11-point 3-fold dilution series.

Where two headings read alike, the source gives them in different places. A value given as a limit tells only on which side of the number the result lay.

The term IC50 denotes the point on the concentration scale where inhibition reaches its midpoint. Read a low IC50 as greater potency. By Kd is commonly meant a measure of binding affinity in units of concentration.

T1 sequence (P22607 23-806 V555M): as the sequence (P22607 23-806) above, with V533M counted along it

Regarding `C[C@H]1CN(C2(C)CN(c3ncc(-c4n[nH]c5ccc(O[C@H](C)c6c(Cl)cncc6Cl)cc45)cc3F)C2)CCO1` [Example 216, (S)-4-(1-(5-(5-((R)-1-(3,5-dichloropyridin-4-yl)ethoxy)-1H-indazol-3-yl)-3-fluoropyridin-2-yl)-3-methylazetidin-3-yl)-2-methylmorpholine], the IC50 in assay [1] was 0.0001 to 0.05 µM; in assay [2] it was 0.05 to 0.2 µM; in assay [3], 0.05 to 0.2 µM. For the same molecule, the dissociation constant Kd at FGFR3 (V555M), on FGFR3, on FGFR2, on FGFR1 and at FGFR4 was 1 to 50 nM throughout.

`COc1cc2[nH]nc(-c3cnc(N4CC(C)(NC[C@H](C)O)C4)c(F)c3)c2cc1O[C@H](C)c1c(Cl)cncc1Cl` [Example 160, (S)-1-((1-(5-(5-((R)-1-(3,5-dichloropyridin-4-yl)ethoxy)-6-methoxy-1H-indazol-3-yl)-3-fluoropyridin-2-yl)-3-methylazetidin-3-yl)amino)propan-2-ol]: the IC50 in assay [1], in assay [2] and in assay [3] was 0.0001 to 0.05 µM throughout. In addition, the Kd at FGFR3 (V555M), at FGFR3, on FGFR2, at FGFR1 and on FGFR4 was 1 to 50 nM throughout.

Take `C=CCNC1(C)CN(c2ccc(-c3n[nH]c4ccc(O[C@H](C)c5c(Cl)cncc5Cl)cc34)cn2)C1` [Example 232, (R)-N-ally1-1-(5-(5-(1-(3,5-dichloropyridin-4-yl)ethoxy)-1H-indazol-3-yl)pyridin-2-yl)-3-methylazetidin-3-amine]: the results for the IC50 in assay [1], in assay [2] and in assay [3] were 0.0001 to 0.05 µM, 0.05 to 0.2 µM and 0.0001 to 0.05 µM, respectively. Moreover, the Kd at FGFR3 (V555M), at FGFR3, at FGFR2, at FGFR1 and at FGFR4 was 1 to 50 nM throughout.

Regarding `Cc1ncc(Cl)c([C@@H](C)Oc2ccc3[nH]nc(-c4ccc(N5CC(C)(NC6CCC6)C5)nc4)c3c2)c1Cl` [Example 71, N-cyclobutyl-1-[5-[5-[(1R)-1-(3,5-dichloro-2-methyl-4-pyridyl)ethoxy]-1H-indazol-3-yl]-2-pyridyl]-3-methyl-azetidin-3-amine], the IC50 in assay [1] lay within 0.0001 to 0.05 µM; in assay [2] it was 0.2 to 1 µM; in assay [3], 0.05 to 0.2 µM. Moreover, the Kd at FGFR3 (V555M), at FGFR3, at FGFR2, at FGFR1 and on FGFR4 was 1 to 50 nM each time.

With `C[C@@H](Oc1ccc2[nH]nc(-c3cnc(N4CC(C)(NCC(C)(C)O)C4)c(F)c3)c2c1)c1c(Cl)cncc1Cl` [Example 113, (R)-1-((1-(5-(5-(1-(3,5-dichloropyridin-4-yl)ethoxy)-1H-indazol-3-yl)-3-fluoropyridin-2-yl)-3-methylazetidin-3-yl)amino)-2-methylpropan-2-ol], the IC50 is 0.0001 to 0.05 µM in assay [1], 0.05 to 0.2 µM in assay [2] and 0.0001 to 0.05 µM in assay [3]. Further, the Kd at FGFR3 (V555M), on FGFR3, on FGFR2, on FGFR1 and at FGFR4 was 1 to 50 nM throughout.

`C[C@@H](Oc1ccc2[nH]nc(-c3cnc(N4CC(C)(NCC5(O)CC5)C4)c(F)c3)c2c1)c1c(Cl)cncc1Cl` [Example 118, (R)-1-(((1-(5-(5-(1-(3,5-dichloropyridin-4-yl)ethoxy)-1H-indazol-3-yl)-3-fluoropyridin-2-yl)-3-methylazetidin-3-yl)amino)methyl)cyclo-propan-1-ol]: the IC50 in assay [1], in assay [2] and in assay [3] was 0.0001 to 0.05 µM in each case. Moreover, the Kd on FGFR3 (V555M), on FGFR3, on FGFR2, at FGFR1 and at FGFR4 was 1 to 50 nM throughout.

For `C[C@@H](Oc1ccc2[nH]nc(-c3ccc(N4CC(C)(NC(=O)CN(C)C)C4)nc3)c2c1)c1c(Cl)cncc1Cl` [Example 95, (R)-N-(1-(5-(5-(1-(3,5-dichloropyridin-4-yl)ethoxy)-1H-indazol-3-yl)pyridin-2-yl)-3-methylazetidin-3-yl)-2-(dimethylamino)acetamide], the IC50 in assay [1], in assay [2] and in assay [3] was 0.0001 to 0.05 µM each time. The Kd at FGFR3 (V555M), on FGFR3, at FGFR2, on FGFR1 and on FGFR4 was 1 to 50 nM in each case.

As for `C[C@@H](Oc1ccc2[nH]nc(-c3ccc(N4CC(C)(N5CCC5)C4)nc3)c2c1)c1c(Cl)cncc1Cl` [Example 116, 3-[6-[3-(azetidin-1-yl)-3-methyl-azetidin-1-yl]-3-pyridyl]-5-[(1R)-1-(3,5-dichloro-4-pyridyl)ethoxy]-1H-indazole], the IC50 in assay [1], in assay [2] and in assay [3] was 0.0001 to 0.05 µM each time. Further, the Kd at FGFR3 (V555M), on FGFR3, at FGFR2, on FGFR1 and at FGFR4 was 1 to 50 nM in each case.

For `C[C@@H](Oc1cc2c(-c3cnc(N4CC(C)(NCC5CC5)C4)c(F)c3)n[nH]c2cc1F)c1c(Cl)cncc1Cl` [Example 132, N-(cyclopropylmethyl)-1-[5-[5-[(1R)-1-(3,5-dichloro-4-pyridyl)ethoxy]-6-fluoro-1H-indazol-3-yl]-3-fluoro-2-pyridyl]-3-methyl-azetidin-3-amine], the results for the IC50 in assay [1], in assay [2] and in assay [3] were 0.0001 to 0.05 µM, 0.05 to 0.2 µM and 0.05 to 0.2 µM, respectively. Moreover, the Kd on FGFR3 (V555M), at FGFR3, at FGFR2, on FGFR1 and at FGFR4 was 1 to 50 nM in each case.

In the case of `COc1cc2[nH]nc(-c3cnc(N4CC5(CC5)C4)c(C#N)c3)c2cc1O[C@H](C)c1c(Cl)cncc1Cl` [Example 65, 2-(5-azaspiro[2.3]hexan-5-yl)-5-[5-[(1R)-1-(3,5-dichloro-4-pyridyl)ethoxy]-6-methoxy-1H-indazol-3-yl]pyridine-3-carbonitrile], the figures for the IC50 in assay [1], in assay [2] and in assay [3] were 0.0001 to 0.05 µM, 0.2 to 1 µM and above 1 µM, respectively. Besides, at FGFR2, the Kd was 1 to 50 nM.

For `C[C@@H](Oc1ccc2[nH]nc(-c3ccc(N4CC(N)(c5ccn(C)n5)C4)nn3)c2c1)c1c(Cl)cncc1Cl` [Example 388, (R)-1-(6-(5-(1-(3,5-dichloropyridin-4-yl)ethoxy)-1H-indazol-3-yl)pyridazin-3-yl)-3-(1-methyl-1H-pyrazol-3-yl)azetidin-3-amine], the IC50 lay in the range of 0.0001 to 0.05 µM in assay [1], 0.2 to 1 µM in assay [2] and 0.05 to 0.2 µM in assay [3]. The Kd at FGFR3 (setting [4]) and at FGFR1 (setting [4]) was 1 to 50 nM in each case.

Consider `C[C@@H](Oc1ccc2[nH]nc(-c3ccc(N4CC(C)(NCC(=O)N(C)C)C4)nn3)c2c1)c1c(Cl)cncc1Cl` [Example 314, (R)-2-((1-(6-(5-(1-(3,5-dichloropyridin-4-yl)ethoxy)-1H-indazol-3-yl)pyridazin-3-yl)-3-methylazetidin-3-yl)amino)-N,N-dimethylacetamide], for which the IC50 in assay [1] lay in the range of 0.0001 to 0.05 µM; in assay [2] it was 0.2 to 1 µM; in assay [3], 0.05 to 0.2 µM. Further, the Kd at FGFR3 and on FGFR1 was 1 to 50 nM throughout.
